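A five-concentration, 48-hour dose response in 96-well plates underlies each endpoint, interpolated linearly between surrounding concentrations. GI50 is the concentration that inhibits growth by half.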 Calls of active or inactive are those of the source. Cut-off read from the data, not from the text of the source: active = GI50 up to about 1.1 µM and inactive = higher. Some results are limits rather than exact numbers.

We go through eight compounds from ChEMBL document CHEMBL1201862, “PubChem BioAssay data set” (2004).

Among the test systems are EKVX; K562; NCI-H460; Malme-3M; HL-60; NCI/ADR-RES; Hs-578T; T47D; CCRF-CEM; 786-0; SNB-19; SNB-75; SK-OV-3; NCI-H23; BT-549; TK-10; NCI-H226; DU-145; COLO 205; UO-31.
Common to all, as to test: growth of human tumour cells (NCI), 48 h

For `COC(=O)C(=O)C(C(=O)C(N)=O)c1nc2ccc(C(=O)c3ccccc3)cc2nc1O` (stereo not given), the GI50 was > 100 µM (inactive) in the experiment on EKVX; 34.2 µM (inactive) in the experiment with K562; 74.5 µM (inactive) in the experiment on NCI-H460; > 100 µM (inactive) with Malme-3M; 84.7 µM (inactive) with HL-60; 40.4 µM (inactive) in the experiment on NCI/ADR-RES. Further, the GI50 in the experiment on Hs-578T is 80.5 µM (inactive); with T47D, 70.5 µM (inactive); in the experiment on CCRF-CEM it was > 100 µM (inactive); with 786-0, > 100 µM (inactive); in the experiment on SNB-19, > 10 µM (inactive); in the experiment with SNB-75, 69 µM (inactive). Also, the GI50 in the experiment with SK-OV-3 was > 100 µM (inactive); with NCI-H23, > 10 µM (inactive); in the experiment on BT-549, > 100 µM (inactive); with TK-10, > 100 µM (inactive); in the experiment with NCI-H226, > 100 µM (inactive).

On to `C[n+]1ccc2/c(=C\C#N)c3ccccc3n21`, for which the GI50 was 24.9 µM (inactive) in the experiment on EKVX; 61.2 µM (inactive) in the experiment on K562; 31 µM (inactive) in the experiment on NCI-H460; 17.1 µM (inactive) with Malme-3M; 15.8 µM (inactive) in the experiment on DU-145; 17.3 µM (inactive) in the experiment on HL-60. The GI50 was > 100 µM (inactive) in the experiment with NCI/ADR-RES; 5.65 µM (inactive) in the experiment with T47D; 20 µM (inactive) with CCRF-CEM; 52.2 µM (inactive) with 786-0; 4.27 µM (inactive) in the experiment with SNB-19; 30.6 µM (inactive) in the experiment with SK-OV-3. Further, the GI50 was 11.4 µM (inactive) in the experiment with NCI-H23; 16.6 µM (inactive) with BT-549; 19.7 µM (inactive) in the experiment with COLO 205; 22 µM (inactive) with TK-10; > 100 µM (inactive) in the experiment with UO-31; 32.5 µM (inactive) with NCI-H226.

As to `C=C1C(=O)OC2C3C(=C)[C@@H](OC(C)=O)CC3C(C)=CC(OC(=O)C(C)(O)C(C)OC(C)=O)[C@@H]12` (stereo not given in full), the GI50 was 16.1 µM (inactive) with EKVX; 3.35 µM (inactive) in the experiment on K562; 17.6 µM (inactive) in the experiment on NCI-H460; 6.7 µM (inactive) in the experiment on Malme-3M; 16.2 µM (inactive) in the experiment on DU-145; 2.55 µM (inactive) with HL-60. The GI50 in the experiment with Hs-578T was 12.8 µM (inactive); in the experiment on T47D, 19.5 µM (inactive); with CCRF-CEM, 2.84 µM (inactive); in the experiment with 786-0 it was 11.5 µM (inactive); in the experiment on SNB-19, 85.5 µM (inactive); in the experiment on SNB-75, 13.7 µM (inactive). In addition, the GI50 was 80.9 µM (inactive) with SK-OV-3; 13.2 µM (inactive) with NCI-H23; 13.6 µM (inactive) with BT-549; 4.15 µM (inactive) in the experiment on COLO 205; 3.99 µM (inactive) with TK-10; 12.4 µM (inactive) with UO-31. The GI50 with NCI-H226 is 21.6 µM (inactive).

On to `COC(=O)c1cc(C#Cc2cc(OC)ccc2OC)ccc1OC`, for which the GI50 in the experiment with EKVX was 40.9 µM (inactive); in the experiment on K562 it was < 0.01 µM (active); with NCI-H460, 56.8 µM (inactive); in the experiment on Malme-3M, 44.3 µM (inactive); in the experiment on HL-60 it was 31.1 µM (inactive); in the experiment on NCI/ADR-RES, 47.5 µM (inactive). Moreover, the GI50 in the experiment on Hs-578T is > 100 µM (inactive); with T47D it was 2.04 µM (inactive); with 786-0 it was 51.3 µM (inactive); with SNB-19, > 100 µM (inactive); in the experiment with SNB-75, 33.8 µM (inactive); in the experiment on SK-OV-3, 45.4 µM (inactive). Moreover, the GI50 with NCI-H23 is 41.4 µM (inactive); with BT-549 it was 37.7 µM (inactive); in the experiment on COLO 205, 24.5 µM (inactive); in the experiment on TK-10, 54.6 µM (inactive); with UO-31, 40.1 µM (inactive); with NCI-H226, 67 µM (inactive).

As to `COc1ccc(/C=N/NC(=O)C2=C(N)N(c3ccccc3)C(=C(C#N)C#N)S2)cc1`, the GI50 in the experiment on EKVX, with K562, with NCI-H460, with Malme-3M, in the experiment with DU-145 and with HL-60 was > 100 µM (inactive) each time. The GI50 with NCI/ADR-RES is > 100 µM (inactive); with Hs-578T it was > 100 µM (inactive); in the experiment with CCRF-CEM, > 100 µM (inactive); in the experiment on 786-0, 62.5 µM (inactive); in the experiment with SNB-19 it was 70 µM (inactive); with SNB-75 it was 16 µM (inactive). Also, the GI50 with SK-OV-3 was 57 µM (inactive); in the experiment with NCI-H23, > 100 µM (inactive); in the experiment on BT-549 it was > 100 µM (inactive); with COLO 205 it was > 100 µM (inactive); in the experiment with TK-10, > 100 µM (inactive); in the experiment on UO-31, > 100 µM (inactive). Besides, the GI50 in the experiment on NCI-H226 is > 100 µM (inactive).

For the compound `C[n+]1c(-c2ccc(/C=N/NC(=O)C(=O)N/N=C/c3ccc(-c4cn5ccccc5[n+]4C)cc3)cc2)cn2ccccc21`, the GI50 in the experiment with EKVX, in the experiment on K562, in the experiment on NCI-H460, in the experiment with Malme-3M, with DU-145 and in the experiment on HL-60 was > 100 µM (inactive) in each case. Also, the GI50 with NCI/ADR-RES, in the experiment on Hs-578T, in the experiment on CCRF-CEM, in the experiment with 786-0, in the experiment with SNB-19 and in the experiment on SNB-75 was > 100 µM (inactive) in each case. In addition, the GI50 is > 100 µM (inactive) in the experiment with SK-OV-3; > 100 µM (inactive) in the experiment on NCI-H23; > 100 µM (inactive) in the experiment with BT-549; > 100 µM (inactive) in the experiment with COLO 205; 56.6 µM (inactive) in the experiment on TK-10; > 100 µM (inactive) in the experiment on UO-31. Moreover, the GI50 in the experiment on NCI-H226 is > 100 µM (inactive).

Regarding `O=C(/C=C/c1ccc(-c2ccccc2)cc1)NCc1ccc(C(=O)NCCc2ccccc2)cc1`, the GI50 was > 100 µM (inactive) in the experiment on EKVX; 88.5 µM (inactive) with K562; > 100 µM (inactive) in the experiment with NCI-H460; 31.6 µM (inactive) with Malme-3M; > 100 µM (inactive) with DU-145; > 100 µM (inactive) in the experiment with NCI/ADR-RES. The GI50 was > 100 µM (inactive) in the experiment on T47D; 18.5 µM (inactive) with CCRF-CEM; 59.2 µM (inactive) with 786-0; > 100 µM (inactive) in the experiment with SNB-19; 49.3 µM (inactive) in the experiment with SNB-75; > 100 µM (inactive) in the experiment with SK-OV-3. The GI50 in the experiment with NCI-H23, in the experiment with BT-549, in the experiment on COLO 205, in the experiment with TK-10, in the experiment with UO-31 and in the experiment with NCI-H226 was > 100 µM (inactive) in each case.

As to `CCN(CC)CCCNc1nc2ccccc2[n+]([O-])n1`, the GI50 in the experiment on K562, with NCI-H460, with Malme-3M, in the experiment with DU-145, in the experiment with HL-60 and with NCI/ADR-RES was > 100 µM (inactive) in each case. In addition, the GI50 was > 100 µM (inactive) with T47D; > 100 µM (inactive) with CCRF-CEM; > 100 µM (inactive) with 786-0; > 100 µM (inactive) in the experiment on SNB-19; 64.1 µM (inactive) in the experiment on SNB-75; > 100 µM (inactive) with NCI-H23. The GI50 with BT-549, in the experiment with COLO 205, with TK-10, in the experiment on UO-31 and in the experiment on NCI-H226 was > 100 µM (inactive) throughout.
